Source: ChEMBL document CHEMBL5236660, “Design, synthesis, and biological evaluation of quinoxalinone derivatives as potent BRD4 inhibitors” (Bioorg Med Chem, 2023)

Key:
HepG2 [1] = test: Induction of apoptosis in human HepG2 cells assessed as viable cells at 0.625 uM incubated for 24 hrs by Annexin-V/PI staining based flow cytometry (Rvb=94.0%); type: functional; conditions: read-out: Activity
HepG2 [2] = test: Inhibition of colony formation in human HepG2 cells at 0.625 to 10 uM incubated for 8 days with drug replacement every 2 days by crystal violet staining based imaging analysis; type: functional, cell-based; conditions: dose 0.625-10 µM, time 8.0 day
HepG2 [3] = test: Induction of apoptosis in human HepG2 cells assessed as early apoptotic cells at 0.625 uM incubated for 24 hrs by Annexin-V/PI staining based flow cytometry (Rvb=4.48%); type: functional
HepG2 [4] = test: Induction of apoptosis in human HepG2 cells assessed as total apoptotic cells at 0.625 uM incubated for 24 hrs by Annexin-V/PI staining based flow cytometry (Rvb=5.14%); type: functional
HepG2 [5] = test: Induction of apoptosis in human HepG2 cells assessed as viable cells at 1.25 uM incubated for 24 hrs by Annexin-V/PI staining based flow cytometry (Rvb=94.0%); type: functional; conditions: read-out: Activity
HepG2 [6] = test: Induction of cell cycle arrest in human HepG2 cells assessed as accumulation at G2/M phase at 2.5 uM incubated for 24 hrs by flow cytometry (Rvb= 14.05%); type: functional
HepG2 [7] = test: Induction of cell cycle arrest in human HepG2 cells assessed as accumulation at S phase at 1.25 uM incubated for 24 hrs by flow cytometry (Rvb= 20.1%); type: functional
HepG2 [8] = test: Induction of cell cycle arrest in human HepG2 cells assessed as accumulation at G0/G1 phase at 1.25 uM incubated for 24 hrs by flow cytometry (Rvb= 46.5%); type: functional
HT-29 = test: Antiproliferative activity against human HT-29 cells assessed as reduction in cell viability incubated for 72 hrs by MTT assay; type: functional, cell-based; conditions: HT-29, 72 h
HepG2 [9] = test: Induction of apoptosis in human HepG2 cells assessed as late apoptotic cells at 5 uM incubated for 24 hrs by Annexin-V/PI staining based flow cytometry (Rvb=0.66%); type: functional
HepG2 [10] = test: Antimigratory activity against human HepG2 cells assessed as increase in Occludin expression at 0.625 to 2.5 uM incubated 24 hrs by Western blot analysis; type: functional, cell-based; conditions: dose 0.625-2.5 µM
HepG2 [11] = test: Induction of apoptosis in human HepG2 cells assessed as viable cells at 5 uM incubated for 24 hrs by Annexin-V/PI staining based flow cytometry (Rvb=94.0%); type: functional; conditions: read-out: Activity
HepG2 [12] = test: Induction of cell cycle arrest in human HepG2 cells assessed as accumulation at S phase at 5 uM incubated for 24 hrs by flow cytometry (Rvb= 20.1%); type: functional
HepG2 [13] = test: Induction of cell cycle arrest in human HepG2 cells assessed as accumulation at G2/M phase at 0.625 uM incubated for 24 hrs by flow cytometry (Rvb= 14.05%); type: functional
HepG2 [14] = test: Induction of cell cycle arrest in human HepG2 cells assessed as accumulation at G0/G1 phase at 5 uM incubated for 24 hrs by flow cytometry (Rvb= 46.5%); type: functional
HepG2 [15] = test: Induction of cell cycle arrest in human HepG2 cells assessed as accumulation at S phase at 2.5 uM incubated for 24 hrs by flow cytometry (Rvb= 20.1%); type: functional
HepG2 [16] = test: Induction of apoptosis in human HepG2 cells assessed as viable cells at 2.5 uM incubated for 24 hrs by Annexin-V/PI staining based flow cytometry (Rvb=94.0%); type: functional; conditions: read-out: Activity
MCF7 = test: Antiproliferative activity against human MCF7 cells assessed as reduction in cell viability incubated for 72 hrs by MTT assay; type: functional, cell-based; conditions: MCF7, 72 h
HepG2 [17] = test: Induction of apoptosis in human HepG2 cells assessed as increase in cleaved caspase-3 level at 0.625 to 2.5 uM incubated for 24 hrs by Western blot analysis; type: functional, cell-based; conditions: dose 0.625-2.5 µM
HepG2 [18] = test: Induction of apoptosis in human HepG2 cells assessed as increase in p21 level at 0.625 to 2.5 uM incubated for 24 hrs by Western blot analysis; type: functional, cell-based; conditions: dose 0.625-2.5 µM
HepG2 [19] = test: Antiproliferative activity against human HepG2 cells assessed as reduction in cell viability incubated for 72 hrs by MTT assay; type: functional, cell-based; conditions: HepG2, 72 h
HepG2 [20] = test: Induction of apoptosis in human HepG2 cells assessed as early apoptotic cells at 1.25 uM incubated for 24 hrs by Annexin-V/PI staining based flow cytometry (Rvb=4.48%); type: functional
[21] = target: Bromodomain-containing protein 4 (Homo sapiens, UniProt O60885); test: Inhibition of BRD4 BD1 (unknown origin) by TR-FRET assay
HepG2 [22] = test: Induction of apoptosis in human HepG2 cells assessed as early apoptotic cells at 2.5 uM incubated for 24 hrs by Annexin-V/PI staining based flow cytometry (Rvb=4.48%); type: functional
HepG2 [23] = test: Antimigratory activity against human HepG2 cells assessed as increase in E-cadherin expression at 0.625 to 2.5 uM incubated 24 hrs by Western blot analysis; type: functional, cell-based; conditions: dose 0.625-2.5 µM
HepG2 [24] = test: Induction of apoptosis in human HepG2 cells assessed as necrotic cells at 5 uM incubated for 24 hrs by Annexin-V/PI staining based flow cytometry (Rvb=0.85%); type: functional
HepG2 [25] = test: Induction of cell cycle arrest in human HepG2 cells assessed as accumulation at S phase at 0.625 uM incubated for 24 hrs by flow cytometry (Rvb= 20.1%); type: functional
[26] = Cytotoxicity against human GES1 cells assessed as reduction in cell viability incubated for 72 hrs by MTT assay; type: toxicity, cell-based
HepG2 [27] = test: Antimigratory activity against human HepG2 cells assessed as decrease in Snail expression at 0.625 to 2.5 uM incubated 24 hrs by Western blot analysis; type: functional, cell-based; conditions: dose 0.625-2.5 µM
HepG2 [28] = test: Induction of apoptosis in human HepG2 cells assessed as necrotic cells at 1.25 uM incubated for 24 hrs by Annexin-V/PI staining based flow cytometry (Rvb=0.85%); type: functional
HepG2 [29] = test: Antimigratory activity against human HepG2 cells assessed as inhibition of cell migration at 0.625 to 5 uM measured upto 24 hrs by wound healing assay; type: functional, cell-based; conditions: dose 0.625-5 µM
HepG2 [30] = test: Induction of apoptosis in human HepG2 cells assessed as total apoptotic cells at 2.5 uM incubated for 24 hrs by Annexin-V/PI staining based flow cytometry (Rvb=5.14%); type: functional
HepG2 [31] = test: Inhibition of c-myc expression in human HepG2 cells at 0.625 to 2.5 uM incubated for 24 hrs by Western blot analysis; type: functional, cell-based; conditions: dose 0.625-2.5 µM
HepG2 [32] = test: Induction of apoptosis in human HepG2 cells assessed as total apoptotic cells at 5 uM incubated for 24 hrs by Annexin-V/PI staining based flow cytometry (Rvb=5.14%); type: functional
HepG2 [33] = test: Antimigratory activity against human HepG2 cells assessed as decrease in MMP-9 expression at 0.625 to 2.5 uM incubated 24 hrs by Western blot analysis; type: functional, cell-based; conditions: dose 0.625-2.5 µM
HepG2 [34] = test: Induction of apoptosis in human HepG2 cells assessed as necrotic cells at 0.625 uM incubated for 24 hrs by Annexin-V/PI staining based flow cytometry (Rvb=0.85%); type: functional
HepG2 [35] = test: Induction of apoptosis in human HepG2 cells assessed as early apoptotic cells at 5 uM incubated for 24 hrs by Annexin-V/PI staining based flow cytometry (Rvb=4.48%); type: functional

**Q.** For `CC(=O)Nc1ccc(Oc2ccc(F)cc2F)c(-c2ccc3[nH]c(=O)c(C)nc3c2)c1`, which viability at 0.625 µM (HepG2 [1]) is on record?
**A.** The viability at 0.625 µM was 92.9%.

**Q.** What about the inhibition (HepG2 [2]) of the same molecule?
**A.** The inhibition was “Dose-Dependent Effect”.

**Q.** And the Activity (HepG2 [3])?
**A.** The Activity was 5.3%.

**Q.** And the Activity (HepG2 [4])?
**A.** The Activity was 6.26%.

**Q.** What about the viability at 1.25 µM (HepG2 [5]) of the same molecule?
**A.** Its viability at 1.25 µM is 91.5%.

**Q.** And the Activity (HepG2 [6])?
**A.** Its Activity is 24.4%.

**Q.** And the Activity (HepG2 [7])?
**A.** The Activity was 10.2%.

**Q.** What about the Activity (HepG2 [8]) of the same molecule?
**A.** Its Activity is 51%.

**Q.** What about the IC50 (HT-29) of the same molecule?
**A.** The IC50 was greater than 50 µM.

**Q.** And the Activity (HepG2 [9])?
**A.** Its Activity is 1.26%.

**Q.** And the Activity (HepG2 [10])?
**A.** The Activity was “Dose-Dependent Effect”.

**Q.** And the viability at 5 µM (HepG2 [11])?
**A.** Its viability at 5 µM is 87.5%.

**Q.** What about the Activity (HepG2 [12]) of the same molecule?
**A.** The Activity was 12.4%.

**Q.** And the Activity (HepG2 [13])?
**A.** The Activity was 15.5%.

**Q.** And the Activity (HepG2 [14])?
**A.** Its Activity is 54.9%.

**Q.** And the Activity (HepG2 [15])?
**A.** Its Activity is 9.5%.

**Q.** And the viability at 2.5 µM (HepG2 [16])?
**A.** Its viability at 2.5 µM is 90.6%.

**Q.** What about the IC50 (MCF7) of the same molecule?
**A.** Its IC50 is 22.1 µM.

**Q.** And the Activity (HepG2 [17])?
**A.** The Activity was “Dose-Dependent Effect”.

**Q.** What about the Activity (HepG2 [18]) of the same molecule?
**A.** Its Activity is “Dose-Dependent Effect”.

**Q.** What about the IC50 (HepG2 [19]) of the same molecule?
**A.** Its IC50 is 1130 nM.

**Q.** What about the Activity (HepG2 [20]) of the same molecule?
**A.** The Activity was 6.32%.

**Q.** What about the IC50 [21] of the same molecule?
**A.** Its IC50 is 82.3 nM.

**Q.** What about the Activity (HepG2 [22]) of the same molecule?
**A.** The Activity was 7.22%.

**Q.** And the Activity (HepG2 [23])?
**A.** Its Activity is “Dose-Dependent Effect”.

**Q.** What about the Activity (HepG2 [24]) of the same molecule?
**A.** Its Activity is 0.84%.

**Q.** And the Activity (HepG2 [25])?
**A.** The Activity was 20%.

**Q.** What about the IC50 at 72 h [26] of the same molecule?
**A.** The IC50 at 72 h was 57.2 µM.

**Q.** And the Activity (HepG2 [27])?
**A.** The Activity was “Dose-Dependent Effect”.

**Q.** What about the Activity (HepG2 [28]) of the same molecule?
**A.** Its Activity is 0.83%.

**Q.** And the inhibition (HepG2 [29])?
**A.** The inhibition was “Dose-Dependent Effect”.

**Q.** And the Activity (HepG2 [30])?
**A.** The Activity was 8.61%.

**Q.** What about the inhibition (HepG2 [31]) of the same molecule?
**A.** The inhibition was “Dose-Dependent Effect”.

**Q.** What about the Activity (HepG2 [32]) of the same molecule?
**A.** The Activity was 11.66%.

**Q.** And the Activity (HepG2 [33])?
**A.** Its Activity is “Dose-Dependent Effect”.

**Q.** And the Activity (HepG2 [34])?
**A.** Its Activity is 0.8%.

**Q.** And the Activity (HepG2 [35])?
**A.** The Activity was 10.4%.
